Results on five molecules are retold here after patent publication US5594001A, “Polycyclic systems, and derivatives thereof, as neurotransmitter release enhancers useful in the treatment of cognitive disorders” (The DuPont Merck Pharmaceutical Company, priority 1994, dated 1997).

Structures are written as SMILES. Bounds are passed on as bounds.

The subject of the assay is ACh level in the rat hippocampus. Kind of assay: Microdialysis, ACh levels in the rat hippocampus in vivo. Conditions: for AUC, Area % under the curve / Peak, maximal % increase of ACh release over baseline / time of Peak after administration / Duration, minutes of release above statistical significance: Table IV. Set-up: species or system rat (male Wistar). On the procedure:
Male Wistar Rats are anaesthetized and guide cannulas stereotaxically implanted into the brain at the level of the dorsal hippocampus. Following a minimum recovery period of 72 h, dialysis probes (0.5 mm diameter, 4.0 mm long, from BAS) are inserted into the hippocampus through the guide cannulas. The probes are perfused at a rate of 2 μl/min with artificial cerebrospinal fluid containing 100 μM physostigmine sulfate (a cholinesterase inhibitor). Rats are allowed to acclimate for 2 hours prior to sample collection. Dialysate samples are collected every 20 min (40 μl) and immediately injected onto a high performance liquid chromatograph equipped for electrochemical detection (HPLC-EC) of acetylcholine (ACh). Following collection of 3 baseline samples, drugs or vehicle control are administered in 0.01 ml/g body weight and dialysate samples are collected for an additional 3 h. The ACh peak heights of the 3 samples prior to drug administration are averaged together to determine baseline ACh levels. ACh peak heights post drug administration are measured and used to determine percent change over baseline ACh levels. At the end of experiments, probe placement is verified histologically.
ACh is separated by reverse phase chromatography (Hamilton PRP-1 column 150×4.5 mm) and converted to acetate, betaine and hydrogen peroxide on an immobilized enzyme reactor column (BAS). Hydrogen peroxide is then detected electrochemically. Mobile phase for the chromatography consists of 0.2M Na2 HPO4, 0.1 mM EDTA, 0.5 mM SOS, 0.9 mM TMA.Cl, with pH adjusted to 8.0 with phosphoric acid and […] Kathon CG (ESA) added to each liter of mobile phase to retard bacterial growth.
FIGS. 1 and 2 show the effects of fluorine substitution to the pendant groups of the anthrone and azafluorene core series on the ability of compounds to increase the level of ACh in the rat hippocampus in vivo. All compounds were tested at 5 mg/kg except Ex. No 64 which was administered at 1 mg/kg. […] This was observed even though the compound was administered by a route (i.p.) which should lead to greater bioavailability than the oral route. Example 68 of the present invention, the bis-fluorinated analog of Example 611 or U.S. Pat. No. 5,173,489, on the other hand, led to a 2-fold increase in ACh levels which was maintained for over 1 hour (FIG. 1). The anthrone compound Ex. No. 440 of U.S. Pat. No. 5,173,489, at 5 mg/kg, led to a peak ACh level of 72% over baseline (FIG. 2). Ex. No. 64 of the present invention, which is the bis-fluoro analog of Ex. No. 440 of U.S. Pat. No. 5,173,489, at 1 mg/kg, led to a delayed increase in ACh levels reaching a peak of over 100% above baseline (FIG. 2). In contrast to the observed effects of Example 440 of U.S. Pat. No. 5,173,489, the increase in ACh level after administration of Example 64 of the present invention was maintained for the entire duration of testing (3 hours).

The mark [1] stands for this setting: 5 mg/kg, vehicle methocel, NSP = no significant points.

Turning to `O=S1(=O)c2ccccc2C(Cc2ccnc(F)c2)(Cc2ccnc(F)c2)c2ccccc21` [Example 107, 5,5-Bis-(2-fluoropyridin-4-ylmethyl)thioxanthene-10,10-dioxide], under “5 mg/kg, vehicle methocel”, the “AUC, Area % under the curve” value amounted to 281 ± 226%; the “Peak, maximal % increase of ACh release over baseline” value (shortened to “Peak, maximal % increase”) is on record as 41 ± 10%; the “time of Peak after administration” value came to 20 min. Under setting [1], the “Duration, minutes of release above statistical significance” value is listed as “NSP”.

On to `c1ccc2c(c1)-c1ncccc1C2(Cc1ccncc1)Cc1ccncc1` [Ex. No 611 of U.S. Pat. No. 5,173,489, reference compound], for which, where the note is “5 mg/kg i.p., FIG. 1”, the “effect on ACh levels over what was observed after vehicle administration” value is “no effect on ACh levels”.

On to `O=C1c2ccccc2C(Cc2ccncc2)(Cc2ccncc2)c2ccccc21` [Ex 440 U.S. Pat. No. 5,173,489, reference compound], for which the “peak ACh level over baseline” value (5 mg/kg oral, FIG. 2) came out at 72%. Further, under “5 mg/kg, vehicle water”, the “AUC, Area % under the curve” value amounted to 44 ± 34%; the “Peak, maximal % increase” value turned out to be 18 ± 15%; the “time of Peak after administration” value worked out at 20 min. In addition, the “Duration, minutes of release above statistical significance” value (5 mg/kg, vehicle water, NSP = no significant points) was “NSP”. Moreover, under “10 mg/kg, vehicle water”, the “AUC, Area % under the curve” value is 705 ± 112%; the “Duration, minutes of release above statistical significance” value was found to be 100 min; the “Peak, maximal % increase” value was 127 ± 31%; the “time of Peak after administration” value is 60 min.

As to `Oc1ccc2c(c1)C(Cc1ccnc(F)c1)(Cc1ccnc(F)c1)c1ccccc1-2` [Example 61, 9,9-Bis((2-fluoro-4-pyridinyl)methyl)-2-hydroxy-9H-fluorene], for the setting “5 mg/kg, vehicle methocel”, the “AUC, Area % under the curve” value is recorded as 95 ± 61%; the “Peak, maximal % increase” value was 48 ± 22%; the “time of Peak after administration” value is 20 min. The “Duration, minutes of release above statistical significance” value under setting [1] turned out to be 40 min.

For `[O-][S+]1c2ccccc2C(Cc2ccnc(F)c2)(Cc2ccnc(F)c2)c2ccccc21` [Example 108, 5,5-Bis(2-fluoropyridin-4-ylmethyl)thioxanthene-10-oxide], where the note is “1 mg/kg, vehicle methocel”, the “AUC, Area % under the curve” value is listed as 184 ± 124%; the “Peak, maximal % increase” value amounted to 34 ± 19%; the “time of Peak after administration” value came out at 100 min. Besides, the “Duration, minutes of release above statistical significance” value (1 mg/kg, vehicle methocel, NSP = no significant points) is given as “NSP”. Also, where the note is “5 mg/kg, vehicle methocel”, the “AUC, Area % under the curve” value was 799 ± 202%; the “Peak, maximal % increase” value is on record as 108 ± 80%; the “time of Peak after administration” value was 80 min. Moreover, the “Duration, minutes of release above statistical significance” value under setting [1] is on record as “>”.
